The record followed here is ChEMBL document CHEMBL6071211, “Invention of VH-937, a Potent HIV-1 Maturation Inhibitor with the Potential for Infrequent Oral Dosing in Humans” (ACS Med Chem Lett, 2024).

What all share (type): functional, organism-based
Common to all, as to details: Human immunodeficiency virus 1, NL4-3

The subject of test [1] is Human immunodeficiency virus 1. As to the kind of experiment: In vitro antiviral activity against fully replicating HIV1 NL4-3 harboring Gag T332S/V362I/prR41G mutant.
In test [2] the test system is Human immunodeficiency virus 1. As to the kind of experiment: In vitro antiviral activity against fully replicating wild type HIV1 NL4-3 in presence of human serum.
For test [3], the system named is Human immunodeficiency virus 1. Nature of the test: In vitro antiviral activity against fully replicating HIV1 NL4-3 harboring Gag A364V mutant.
The subject of test [4] is Human immunodeficiency virus 1. Nature of the test: In vitro antiviral activity against fully replicating wild type HIV1 NL4-3.

For the compound `C=C(C)[C@@H]1CC[C@]2(NCCN3CCS(=O)(=O)CC3)CC[C@]3(C)[C@H](CC[C@@H]4[C@@]5(C)CC=C(C6=CCC(COc7cc(C#N)ccn7)(C(=O)O)CC6)C(C)(C)[C@@H]5CC[C@]43C)[C@@H]12` (mixture of isomers), the EC50 (in general, the concentration needed to bring the measured effect to its halfway point) came to 64.1 nM in test [1], 46.3 nM in test [2], 71.8 nM in test [3] and 0.9 nM in test [4].

For the compound `C=C(C)[C@@H]1CC[C@]2(NCCN3CCS(=O)(=O)CC3)CC[C@]3(C)[C@H](CC[C@@H]4[C@@]5(C)CC=C(C6=CCC(COc7nnnn7C)(C(=O)O)CC6)C(C)(C)[C@@H]5CC[C@]43C)[C@@H]12` (mixture of isomers), the EC50 in test [1] is 6.8 nM; in test [2], 36 nM; in test [3], 24.2 nM; in test [4], 1.7 nM.

For the compound `C=C(C)[C@@H]1CC[C@]2(NCCN3CCS(=O)(=O)CC3)CC[C@]3(C)[C@H](CC[C@@H]4[C@@]5(C)CC=C(C6=CCC(COc7cccnc7)(C(=O)O)CC6)C(C)(C)[C@@H]5CC[C@]43C)[C@@H]12` (mixture of isomers), the EC50 in test [1] stood at 5.8 nM; in test [2] it was 36.7 nM; in test [3] it was 26.9 nM; in test [4] it was 1.9 nM.

Take `C=C(C)[C@@H]1CC[C@]2(NCCN3CCS(=O)(=O)CC3)CC[C@]3(C)[C@H](CC[C@@H]4[C@@]5(C)CC=C(C6=CCC(COc7ccccc7)(C(=O)O)CC6)C(C)(C)[C@@H]5CC[C@]43C)[C@@H]12` (mixture of isomers): the EC50 in test [1] is 27.8 nM; in test [2] it was 58.4 nM; in test [3], 19.7 nM; in test [4], 5 nM.

For the compound `C=C(C)[C@@H]1CC[C@]2(NCCN3CCS(=O)(=O)CC3)CC[C@]3(C)[C@H](CC[C@@H]4[C@@]5(C)CC=C(C6=CCC(COc7cccc(Cl)c7)(C(=O)O)CC6)C(C)(C)[C@@H]5CC[C@]43C)[C@@H]12` (mixture of isomers), the EC50 came to 49.2 nM in test [1], 22 nM in test [2], 16.8 nM in test [3] and 10.7 nM in test [4].

In the case of `C=C(C)[C@@H]1CC[C@]2(NCCN3CCS(=O)(=O)CC3)CC[C@]3(C)[C@H](CC[C@@H]4[C@@]5(C)CC=C(C6=CCC(COc7ccccc7F)(C(=O)O)CC6)C(C)(C)[C@@H]5CC[C@]43C)[C@@H]12` (mixture of isomers), the concentration giving a half-maximal response (EC50) in test [1] turned out to be 19.3 nM; in test [2] it was 58.4 nM; in test [3] it was 27.3 nM; in test [4], 6.1 nM.

As for `C=C(C)[C@@H]1CC[C@]2(NCCN3CCS(=O)(=O)CC3)CC[C@]3(C)[C@H](CC[C@@H]4[C@@]5(C)CC=C(C6=CC[C@](COc7ccccn7)(C(=O)O)CC6)C(C)(C)[C@@H]5CC[C@]43C)[C@@H]12`, the EC50 in test [1] came to 8.8 nM; in test [2], 54.9 nM; in test [3], 5.8 nM; in test [4], 1.6 nM.

`C=C(C)[C@@H]1CC[C@]2(NCCN3CCS(=O)(=O)CC3)CC[C@]3(C)[C@H](CC[C@@H]4[C@@]5(C)CC=C(C6=CCC(COc7ccccn7)(C(=O)O)CC6)C(C)(C)[C@@H]5CC[C@]43C)[C@@H]12` (mixture of isomers): the EC50 in test [1] is 14.3 nM; in test [2], 61 nM; in test [3], 11.3 nM; in test [4], 2.6 nM.

Consider `C=C(C)[C@@H]1CC[C@]2(NCCN3CCS(=O)(=O)CC3)CC[C@]3(C)[C@H](CC[C@@H]4[C@@]5(C)CC=C(C6=CCC(COCc7ccccc7)(C(=O)O)CC6)C(C)(C)[C@@H]5CC[C@]43C)[C@@H]12` (mixture of isomers), for which the EC50 worked out at 22.1 nM in test [1], 98.2 nM in test [2], 49.8 nM in test [3] and 7.8 nM in test [4].
